The values that follow come from patent publication US20120064135A1, “Benzoyl Peroxide Composition, Methods for Making Same, and Pharmaceutical or Cosmetic Formulations Comprising Same, and Uses Thereof” (Norac Pharma, priority 2010, published 2012).

One may read the pKa as the pH at which an ionisable group is half protonated.

The conditions of data set [1]: cited from earlier work.
The nature of data set [2]: Stability of clindamycin hydrochloride mixed with BP-CB or BPO, stored in vials at 30° C., HPLC peak area. The class given is physicochemical. Particulars: after 216 h at 30° C. On the procedure:
The stability of the benzoyl peroxide (BP-CB) formulation of the present invention is compared with benzoyl peroxide (BPO) in non-invention drug formulations. In one study, clindamycin hydrochloride is used as the API. Clindamycin hydrochloride and BP-CB or BPO are placed in vials and stored at 30° C. The vials are analyzed by HPLC and the area from the clindamycin hydrochloride peak is monitored. […] These values are in comparison to the area from the T0 results. BPO Study—Into clear one dram vials is placed hydrous benzoyl peroxide (26 mg, 75.0% by wt) and clindamycin hydrochloride (20 mg). The contents are mixed thoroughly. Then the vials are stored at 30° C. BP-CB Study—Into clear one dram vials is placed BP-CB (30 mg, 65% BPO by wt) and clindamycin hydrochloride (20 mg). The contents are mixed thoroughly then the vials are stored at 30° C. Analysis—At certain time points, the vials are analyzed by HPLC. Prior to analysis, a mixture of methanol and acetonitrile (10 mL total, 1:1 by volume) is added to dissolve the contents of the vial. The solution is used for HPLC analysis. For T0, a vial is removed and analyzed before the samples are heated to 30° C. • To prepare 1 L solution, transfer 1000 mL DI water into a suitable reservoir. Add 6.81 g of KH2PO4, and then adjust pH to 3.1 with H3PO4. Mix well. Degas solution thoroughly before use. [table]

Data set [3] in a line: Stability of tazarotene with BP-CB or BPO in polyacrylic acid gel, stored at 30° C., HPLC peak area. Format: physicochemical. Particulars: after 834 h at 30° C.; with tazarotene in polyacrylic acid (PAA) gel. On the procedure: These stability studies are set up to examine BP-CB/BPO with various APIs in aqueous gel formulations. In one study, tazarotene is used as the API. Tazarotene and BP-CB or BPO are placed into a polyacrylic acid (PAA) gel in vials and stored at 30° C. The vials are analyzed by HPLC and the area from the tazarotene peak is monitored. […] These values are compared on the area from the To results.
BPO Study—Polyacrylic acid gel is prepared by stirring polyacrylic acid (2.5 g) in deionized water (100 mL) at 50° C. for 2 h. The gel is allowed to cool to ambient temperature. The gel (500 mg) is weighed out into each of the 4-dram vials. Into the same vials is placed hydrous benzoyl peroxide (390 mg, 74.6% by wt) and tazarotene (375 mg). The contents are mixed thoroughly then the vials are stored at 30° C.
BP-CB Study—Polyacrylic acid gel is prepared by stirring polyacrylic acid (2.5 g) in deionized water (100 mL) at 50° C. for 2 h. The gel is allowed to cool to ambient temperature. The gel (500 mg) is weighed out into each of the 4-dram vials. Into the same vials is placed BP-CB (447 mg, 65% BPO by wt) and tazarotene (375 mg). The contents are mixed thoroughly then the vials are stored at 30° C.
Analysis—At certain time points, the vials are analyzed by HPLC. […] For To, a vial is removed and analyzed before the samples are heated to 30° C. […]

Consider `CC1=C(/C=C/C(C)=C/C=C/C(C)=C/C(=O)O)C(C)(C)CCC1` [tretinoin], for which, in data set [1], the pKa is reported as 3.8.

Regarding `O=C(OOC(=O)c1ccccc1)c1ccccc1` [BPO, benzoyl peroxide], in data set [2], the “decrease of HPLC area of the clindamycin hydrochloride peak in comparison to T0” value stood at 87.0%. Further, the “decrease of HPLC area of the tazarotene peak compared to T0” value in data set [3] is 88%.
